According to PMC12002301, “Discovery and functional characterization of a bombesin-type neuropeptide signaling system in an invertebrate” (Proceedings of the National Academy of Sciences of the …, 2025):

Test system: tube foot preparations
Assay: In vitro contraction of tube foot preparations
Parameters: species or system Asterias rubens
Conditions: words, ArBN 10^-9 to 10^-6 M
Method: ArBN (EPRRNYNRVFGPTY-NH2), ArBN5-14 (NYNRVFGPTY-NH2), and ArBNP65-81 (EPMPSSLALYIANLSP-NH2), were tested for effects on in vitro cardiac stomach and tube foot preparations from A. rubens. The preparations were dissected as described previously ([43], [59]–[61]), with the organs immersed in ice-cold artificial seawater during dissection. A description of the methods employed for investigation of in vitro effects of ArBN on cardiac stomach and tube foot preparations from A. rubens is included in SI Appendix, SI Methods. […]
Wax was removed from slides using xylene (3 × 10 min) and then slides were immersed in 100% ethanol (2 × 10 min). 0.3% hydrogen peroxide (VWR Chemicals, UK) in methanol was used to quench endogenous peroxidases for 30 min and then an ethanol series (90%, 70%, 50%), distilled water and PBST were used to rehydrate the tissue sections. 5% goat serum (Sigma-Aldrich, UK) made up in PBST was used for blocking for 2 h at room temperature. […]
All the dissected preparations were set up in an aerated organ bath filled with 20 ml artificial seawater maintained at approximately 11°C. Changes in the contractile state of preparations were detected by the transducer, which was linked via a bridge amplifier (FE221 Bridge Amp, ADInstruments Ltd, Oxford, UK) to data acquisition hardware (PowerLab 2/36, ADInstruments Ltd, Oxford, UK). […]

Row | Substance | effect on tube foot preparations
1 | NYNRVFGPTY-NH2 [ArBN5-14, C-terminally amidated 10-residue peptide corresponding to the C-terminal region of ArBN] | neither ArBN5-14 nor ArBNP65-81 had any observable effect
2 | EPMPSSLALYIANLSP-NH2 [ArBNP65-81, C-terminally amidated 16-residue peptide predicted to be derived from residues 65 to 81 of ArBNP] | neither ArBN5-14 nor ArBNP65-81 had any observable effect
